In general, DC50 refers to the concentration giving 50% degradation. High values mean a less potent degrader, low ones a more potent degrader. The IC50 is the concentration that inhibits the measured activity by half.

Bounds are passed on as bounds.

The target of one assay is T1, IRAK4 (Homo sapiens, UniProt Q9NWZ3).
T1 construct: endogenous in cells; host or cells: OCI-Ly10
T1 sequence (Q9NWZ3 1-460): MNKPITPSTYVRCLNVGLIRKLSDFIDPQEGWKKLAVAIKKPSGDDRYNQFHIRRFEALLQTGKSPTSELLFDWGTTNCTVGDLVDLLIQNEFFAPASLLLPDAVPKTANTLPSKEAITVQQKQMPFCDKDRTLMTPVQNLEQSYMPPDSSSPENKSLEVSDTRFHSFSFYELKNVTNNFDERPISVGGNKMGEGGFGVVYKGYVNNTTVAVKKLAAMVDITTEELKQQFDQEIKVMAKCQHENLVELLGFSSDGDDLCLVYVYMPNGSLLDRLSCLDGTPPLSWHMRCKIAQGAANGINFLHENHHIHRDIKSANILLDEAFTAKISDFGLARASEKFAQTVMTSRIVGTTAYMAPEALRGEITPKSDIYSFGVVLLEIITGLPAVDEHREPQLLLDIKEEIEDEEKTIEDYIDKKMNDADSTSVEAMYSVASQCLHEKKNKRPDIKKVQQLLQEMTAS
The assay can be described thus: OCI-LY10 IRAK MSD assay DC50 (IRAK4 degradation). Type of assay: cell-based. The following applies: OCI-Ly10 cells, incubated for 4 hr, concentration of compound required to degrade 50% of protein. On the procedure:
A MSD assay is run to determine the concentration of compound required to degrade 50% of protein (DC50).
• Compounds were reconstituted to 10 mM in stock solutions. The stock solutions were diluted to 5 mM and 45 μL of each dilution was transferred to a 384 pp-plate. A 3 fold, 8-point serial dilution was performed by transferring 15 μL of compound into 30 μL DMSO using Janus. • 20 nL of each compound were added into each well of a 96-well plate (Corning3799). • OCI-Ly10 cells were seeded into the 96-well plate at 3.0*10e^5 cells/100 μL/well. • The cell plate was shaken at 720 rpm for 5 min and incubated for 4 hr. • 100 μL of cells were transferred into the 96-PCR plate and spun down at high speed for 5 mins. • The supernatant was discarded and 100 μL of RIPA lysis buffer with proteinase inhibitors was added per well. The plate was then sealed and shaken at 600 rpm and 4° C. for about 20 min. • The plate was then spun down at high speed (about 3200 g) for 30 min and then frozen in a −80° C. fridge. • A bare MSD plate (L15XA-3) was coated with 2 μg/mL of capture antibody (mouse Anti-IRAK4 antibody [2H9], ab119942) in PBS to 40 μL/well and incubated overnight at 4° C.
• The MSD coated plate was washed 3× (150 μL/well) with 1×TBST (CST #9997S). • The MSD plate was then blocked with 150 μL of blocking buffer [3% Blocker A (MSD, R93BA-4) in TBST]/well and shaken for 1 hr at RT and 600 rpm. • The MSD plate was washed 3× (150 μL/well) with 1×TBST. The sample RIPA lysates were then added to the MSD plate (50 μL/well) and shaken for 1 hr at RT and 600 rpm. • The MSD plate was washed 3× (150 μL/well) with 1×TBST and the primary detection antibody (Rabbit Anti-IRAK4 antibody [Y279], ab32511) was added to a final concentration of 1 μg/ml with 25 μL/well. The plate was then shaken for 1 hr at RT and 600 rpm. • The MSD plate was washed 3× (150 μL/well) with 1×TBST and the secondary detection antibody, SULFO-TAG anti-species antibody (Anti Rabbit Antibody (R32AB-5) MSD, R32AB-1) was added to a volume of 25 μL/well at a final concentration of 1 μg/ml. The plate was then shaken for 1 hr at RT and 600 rpm. • The MSD plate was then washed 3× (150 μL/well) with 1×TBST. • 1×MSD reading buffer was then added (150 μL/well) and the plate […].
(MSD, R92TC-2) • The MSD instrument was then read.
The remaining activity was calculated following the formula below:
• The DC50 was calculated by fitting the Curve using Xlfit (v5.3.1.3), equation 201: […]
The letter codes for IRAK4 DC50 indicate the concentration of compound required to degrade 50% of protein: A (<0.01 μM), B (0.01-0.1 μM), C (>0.1-0.2 μM), D (>0.2 μM).

In a further assay the test system is OCI-LY10 cells. The assay can be described thus: CellTiter-Glo Luminescent Cell Viability Assay. The following applies: Homo sapiens, 96 h, incubated 4 days, read-out: OCI-LY10 CTG IC50. It is filed as cell-based. On the procedure: Compound-mediated viability effect on OCI-LY10 was quantitatively determined using the CellTiter-Glo® Luminescent Cell Viability Assay kit from Promega (Catalog number G7570) following manufacturer's recommended procedures. Briefly, OCI-LY10 cells were seeded into 384 well plates (Grenier Bio-One, Catalog number 781080) with a density of 10,000 cells per well. Compounds were then added to the assay plate with final top concentration of 10 μM and 1:3 dilution series with total of 9 doses. The final DMSO concentration was normalized to 0.2%. The assay plates were incubated at 37° C. for 4 days under 5% CO2. Then the assay plate was equilibrated at room temperature for 10 minutes. To determine cell viability, 30 μL CellTiter Glo reagent was added to each well and the assay plate was centrifuged at 1000 rpm for 30 second, incubated at room temperature for 10 min, and analyzed by detecting the luminescence using a multimode plate reader (EnVision 2105, PerkinElmer). The data was then analyzed by software Prism 7.0 from GraphPad and the dose response curves were fit using a three-parameter logistic equation to calculate IC50.
The letter codes for OCI-LY10 CTG IC50 include: A (<1 μM), B (1-10 μM), C (>10 μM).

As for `CC(C)(O)c1cc2nn([C@H]3CC[C@H](CC4CCN(c5ccn6c(N7CCC(=O)NC7=O)cnc6c5)CC4)CC3)cc2cc1NC(=O)c1cccc(C(F)(F)F)n1` [I-2], the 50% degradation concentration (DC50) at IRAK4 was below 10 nM. The IC50 in the assay on OCI-LY10 cells was 1000 to 10000 nM.
For `O=C1CCN(c2cncc3cc(C#CCOC4CCN(C[C@H]5CC[C@H](n6cc(NC(=O)c7cnn8ccc(N9C[C@H]%10C[C@@H]9CO%10)nc78)c(C(F)F)n6)CC5)CC4)ccc23)C(=O)N1` [I-16] the same measures were above 200 nM and 1000 to 10000 nM.
On the same counts, the results for `CC(C)(O)c1cc2nn([C@H]3CC[C@H](CNCCOCCOCC#Cc4ccn5c(N6CCC(=O)NC6=O)cnc5c4)CC3)cc2cc1NC(=O)c1cccc(C(F)(F)F)n1` [I-34] are 10 to 100 nM and above 10000 nM.
On to `CC(C)(O)c1cc2nn([C@H]3CC[C@H](CN4CCC(c5cccn6c(N7CCC(=O)NC7=O)cnc56)CC4)CC3)cc2cc1NC(=O)c1cccc(C(F)(F)F)n1` [I-23], for which the DC50 at IRAK4 was below 10 nM. For the same compound, the half-maximal inhibitory concentration (IC50) in the assay with OCI-LY10 cells fell in the range of 1000 to 10000 nM.
Consider `O=C1CCN(c2cncc3c(C#CCOC4CCN(C[C@H]5CC[C@H](n6cc(NC(=O)c7cnn8ccc(N9C[C@H]%10C[C@@H]9CO%10)nc78)c(C(F)F)n6)CC5)CC4)cccc23)C(=O)N1` [I-9], for which the half-maximal degradation concentration (DC50) at IRAK4 was below 10 nM. Also, the half-inhibitory concentration (IC50) in the assay on OCI-LY10 cells lay in the range of 1000 to 10000 nM.
For `O=C1CCN(c2cnc3cc(C4CCN(C[C@H]5CC[C@H](n6cc7cc(NC(=O)c8cccc(C(F)(F)F)n8)ccc7n6)CC5)CC4)ccn23)C(=O)N1` [I-32] the same measures were above 200 nM and below 1000 nM.
The compound `O=C1CCN(c2cnc3cc(C#CCOC4CCN(C[C@H]5CC[C@H](n6cc(NC(=O)c7cnn8ccc(N9C[C@H]%10C[C@@H]9CO%10)nc78)c(C(F)F)n6)CC5)CC4)ccn23)C(=O)N1` [I-3] had a 50% degradation concentration (DC50) at IRAK4 below 10 nM. For the same compound, the IC50 with OCI-LY10 cells is 1000 to 10000 nM.
For `COc1cc2nn([C@H]3CC[C@H](CN(C)C4CCN(c5cccn6c(N7CCC(=O)NC7=O)cnc56)CC4)CC3)cc2cc1NC(=O)c1cccc(C(F)(F)F)n1` [I-25] the same measures were below 10 nM and below 1000 nM.
On the same counts, the results for `CN(C[C@H]1CC[C@H](n2cc3cc(NC(=O)c4cccc(C(F)(F)F)n4)c(C(C)(C)O)cc3n2)CC1)C1CCN(c2cccn3c(N4CCC(=O)NC4=O)cnc23)CC1` [I-4] are below 10 nM and 1000 to 10000 nM.
As to `CN(C[C@H]1CC[C@H](n2cc3cc(NC(=O)c4cccc(C(F)(F)F)n4)c(C(C)(C)O)cc3n2)CC1)C1CCN(c2ccn3c(N4CCC(=O)NC4=O)cnc3c2)CC1` [I-1], on IRAK4, the DC50 is below 10 nM. Further, the IC50 with OCI-LY10 cells lay in the range of 1000 to 10000 nM.
On the same counts, the results for `COc1cc2nn([C@H]3CC[C@H](CN4CCC(c5cccn6c(N7CCC(=O)NC7=O)cnc56)CC4)CC3)cc2cc1NC(=O)c1cccc(C(F)(F)F)n1` [I-26] are 10 to 100 nM and below 1000 nM.
On IRAK4, `O=C1CCN(c2cnc3c(C#CCOC4CCN(C[C@H]5CC[C@H](n6cc(NC(=O)c7cnn8ccc(N9C[C@H]%10C[C@@H]9CO%10)nc78)c(C(F)F)n6)CC5)CC4)cccn23)C(=O)N1` [I-24] came in with a DC50 below 10 nM. Besides, the IC50 in the assay on OCI-LY10 cells was in the range of 1000 to 10000 nM.
For `COc1cc2nn([C@H]3CC[C@H](CN(C)C4CCN(c5ccn6c(N7CCC(=O)NC7=O)cnc6c5)CC4)CC3)cc2cc1NC(=O)c1cccc(C(F)(F)F)n1` [I-31] the same measures were below 10 nM and below 1000 nM.
